Reference: patent US11618743B2, “Herbicidal compounds” (SYNGENTA PARTICIPATIONS AG, priority 2017, dated 2023)
Like-named read-outs stand apart in the source and are kept apart here.

Tests used:
Format in all cases: in vivo
[1] = test system: Amaranthus retroflexus (AMARE); test: Post-emergence efficacy, Method B; settings: 360 h, evaluated after 15 days, read-out: Control of weed species after post-emergence application, AMARE (100=total damage to plant; 0=no damage to plant); for pest or weed control at 1000 g/ha: Application Rate 1000 g/Ha; for pest or weed control at 500 g/ha: Application Rate 500 g/Ha
Protocol: (§1) An “instant formulation”, known as the IF50, containing 50 g/L of the “technical” (i.e. unformulated) active ingredient was prepared by dissolving the active ingredient in a mixture of organic solvents and emulsifier, details of which are provided in the table. This IF50 was then mixed with a small, variable amount of acetone to aid dissolution, before addition of an aqueous solution of 1% v/v ammonium sulphate+1% v/v Empicol ESC70 (Sodium lauryl ether sulphate) adjuvant, as the aqueous diluent, to form an aqueous spray solution which contains a predetermined concentration of the active ingredient (which varies depending on the application rate of the active ingredient to the plants).
(§2) Composition of the mixture of organic solvents and emulsifier used as a base for the instant formulation.
(§3) This aqueous spray solution was then sprayed onto the plants, after about 12 days' cultivation. The plants were grown from seeds sown in standard soil, placed in a glasshouse under controlled conditions (at 24/18° C. or 20/16° C., day/night; 16 hours light; 65% humidity). After spray application the plants were then grown on in a glasshouse under the same conditions and watered twice daily. After 15 days the test was evaluated (100=total damage to plant; 0=no damage to plant).
(§4) Ipomoea hederacea (IPOHE), Euphorbia heterophylla (EPHHL), Chenopodium album (CHEAL), 20 Amaranthus retroflexus (AMARE), Lolium perenne (LOLPE), Digitaria sanguinalis (DIGSA), Eleusine indica (ELEIN), Echinochloa crus-galli (ECHCG), Setaria faberi (SETFA)

[2] = test system: Digitaria sanguinalis (DIGSA); test: Post-emergence efficacy, Method B; settings: 360 h, evaluated after 15 days, read-out: Control of weed species after post-emergence application, DIGSA (100=total damage to plant; 0=no damage to plant); for pest or weed control at 1000 g/ha: Application Rate 1000 g/Ha; for pest or weed control at 500 g/ha: Application Rate 500 g/Ha
Protocol: as §1, §2, §3, §4

[3] = test system: Ipomoea hederacea (IPOHE); test: Post-emergence efficacy, Method B; settings: 360 h, read-out: Control of weed species after post-emergence application, IPOHE (100=total damage to plant; 0=no damage to plant)
Protocol: as §1, §2, §3, §4

[4] = test system: Chenopodium album (CHEAL); test: Post-emergence efficacy, Method B; settings: 360 h, read-out: Control of weed species after post-emergence application, CHEAL (100=total damage to plant; 0=no damage to plant)
Protocol: as §1, §2, §3, §4

[5] = test system: Eleusine indica (ELEIN); test: Post-emergence efficacy, Method B; settings: 360 h, read-out: Control of weed species after post-emergence application, ELEIN (100=total damage to plant; 0=no damage to plant)
Protocol: as §1, §2, §3, §4

[6] = test system: Lolium perenne (LOLPE); test: Post-emergence efficacy, Method B; settings: 360 h, read-out: Control of weed species after post-emergence application, LOLPE (100=total damage to plant; 0=no damage to plant)
Protocol: as §1, §2, §3, §4

[7] = test system: Euphorbia heterophylla (EPHHL); test: Post-emergence efficacy, Method B; settings: 360 h, evaluated after 15 days, read-out: Control of weed species after post-emergence application, EPHHL (100=total damage to plant; 0=no damage to plant); for pest or weed control at 1000 g/ha: Application Rate 1000 g/Ha; for pest or weed control at 500 g/ha: Application Rate 500 g/Ha
Protocol: as §1, §2, §3, §4

[8] = test system: Setaria faberi (SETFA); test: Post-emergence efficacy, Method B; settings: 360 h, evaluated after 15 days, read-out: Control of weed species after post-emergence application, SETFA (100=total damage to plant; 0=no damage to plant); for pest or weed control at 1000 g/ha: Application Rate 1000 g/Ha; for pest or weed control at 500 g/ha: Application Rate 500 g/Ha
Protocol: as §1, §2, §3, §4

[9] = test system: Echinochloa crus-galli (ECHCG); test: Post-emergence efficacy, Method B; settings: 360 h, read-out: Control of weed species after post-emergence application, ECHCG (100=total damage to plant; 0=no damage to plant)
Protocol: as §1, §2, §3, §4

[10] = test system: Echinochloa crus-galli (ECHCG); test: Post-emergence efficacy, Method C; settings: Application Rate 400 g/Ha, evaluated at 21 days
Protocol: An “instant formulation”, known as the IF50, containing 50 g/L of the “technical” (i.e. unformulated) active ingredient was prepared by dissolving the active ingredient in a mixture of organic solvents and emulsifier, details of which are provided in the table. This IF50 was then mixed with a small, variable amount of acetone to aid dissolution, before addition of a 1% v/v aqueous solution of the adjuvant Empicol ESC70 3EO (Sodium lauryl ether sulphate) and 1% v/v Ammonium sulphate, as the aqueous diluent, to form an aqueous spray solution which contains a predetermined concentration of the active ingredient (which varies depending on the application rate of the active ingredient to the plants).
as §2
as §3, with “plants” for “plants,”, “21” for “12”, “24/18°” for “24/18° C. or 20/16°”, “14” for “16”, “The” for “After 15 days the”, “evaluated at 21 days” for “evaluated”
Ipomoea hederacea (IPOHE), Amaranthus palmeri (AMAPA), Lolium perenne (LOLPE), Eleusine indica (ELEIN), Echinochloa crus-galli (ECHCG), Conyza canadensis (ERICA)

[11] = test system: Digitaria sanguinalis (DIGSA); test: Post-emergence efficacy, Method A; settings: Application rate 500 g/Ha; evaluated after 13 days; 100=total damage to plant, 0=no damage
Outline: (§5)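 Damage was rated visually 13 days after treatment on a 0–100 scale, where 100 meant total damage. Plants had been raised for 14 days in soil under glasshouse conditions (24/16 °C, 14 h light, 65% humidity) before spraying with an aqueous dilution of an IF50-based formulation.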

[12] = test system: Setaria faberi (SETFA); test: Post-emergence efficacy, Method A; settings: Application rate 500 g/Ha; evaluated after 13 days; 100=total damage to plant, 0=no damage
Outline: as §5

[13] = test system: Echinochloa crus-galli (ECHCG); test: Post-emergence efficacy, Method A; settings: Application rate 500 g/Ha; evaluated after 13 days; 100=total damage to plant, 0=no damage
Outline: as §5

[14] = Method B, Application Rate 500 g/Ha, evaluated after 15 days
[15] = Method B, Application Rate 1000 g/Ha, evaluated after 15 days

SMILES | pest or weed control at 1000 g/ha [1] | pest or weed control at 1000 g/ha [2] | pest or weed control at 1000 g/ha [3] | pest or weed control at 1000 g/ha [4] | pest or weed control at 1000 g/ha [5] | pest or weed control at 1000 g/ha [6] | pest or weed control at 1000 g/ha [7] | pest or weed control at 1000 g/ha [8] | pest or weed control at 1000 g/ha [9] | further results
O=C(O)CC[n+]1ccc(-c2cccnn2)cn1 [Compound A138, 3-(4-pyridazin-3-ylpyridazin-1-ium-1-yl)propanoic acid chloride] | 100% | 100% | 40% | 100% | 100% | 100% | 100% | 100% | 100% | 
O=S(=O)([O-])CC[n+]1ccc(-c2ccncn2)cn1 [Compound A4] |  |  |  |  |  |  |  |  |  | pest or weed control at 500 g/ha [1]: 100%; pest or weed control at 500 g/ha [2]: 100%; pest or weed control at 500 g/ha [3, 14]: 100%; pest or weed control at 500 g/ha [4, 14]: 80%; pest or weed control at 500 g/ha [5, 14]: 80%; pest or weed control at 500 g/ha [6, 14]: 90%; pest or weed control at 500 g/ha [7]: 100%; pest or weed control at 500 g/ha [8]: 40%; pest or weed control at 500 g/ha [9, 14]: 70%
Nc1ccnc(-c2cc[n+](CCC(=O)O)nc2)n1 [Compound A41] | 100% | 100% | 20% | 90% | 50% | 60% | 100% | 100% | 100% | 
O=C([O-])CCC[n+]1ccc(-c2ncccn2)cn1 [Compound A220] | 100% | 100% |  |  |  |  | 100% | 30% |  | pest or weed control at 1000 g/ha [3, 15]: 30%; pest or weed control at 1000 g/ha [4, 15]: 90%; pest or weed control at 1000 g/ha [5, 15]: 100%; pest or weed control at 1000 g/ha [6, 15]: 90%; pest or weed control at 1000 g/ha [9, 15]: 90%
O=S(=O)([O-])C[n+]1ccc(-c2ncccn2)cn1 [Compound A3, (4-pyrimidin-2-ylpyridazin-1-ium-1-yl)methanesulfonate] |  |  |  |  |  |  |  |  |  | Control of weed species after post-emergence application, ECHCG (100=total damage to plant; 0=no damage to plant) [10]: 13
N[C@H](CC[n+]1ccc(-c2ncccn2)cn1)C(=O)O [Compound A207, [(1R)-1-carboxy-3-(4-pyrimidin-2-ylpyridazin-1-ium-1-yl)propyl]ammonium 2,2,2-trifluoroacetate] | 100% | 90% | 100% | 90% | 100% | 20% | 70% | 100% | 100% | 
Cl.N[C@@H](CCC[n+]1ccc(-c2ncccn2)cn1)C(=O)O.[Cl-] [Compound A211, [(1S)-1-carboxy-4-(4-pyrimidin-2-ylpyridazin-1-ium-1-yl)butyl]ammonium Dichloride] |  |  |  |  |  |  |  |  |  | Control of weed species after post-emergence application, DIGSA [11]: 100; Control of weed species after post-emergence application, SETFA [12]: 100; Control of weed species after post-emergence application, ECHCG [13]: 100; pest or weed control at 500 g/ha [1]: 100%; pest or weed control at 500 g/ha [2]: 100%; pest or weed control at 500 g/ha [3]: 100%; pest or weed control at 500 g/ha [4]: 90%; pest or weed control at 500 g/ha [5]: 100%; pest or weed control at 500 g/ha [6]: 10%; pest or weed control at 500 g/ha [7]: 80%; pest or weed control at 500 g/ha [8]: 100%; pest or weed control at 500 g/ha [9]: 100%
O=C(O)CC[n+]1ccc(-c2ccncn2)cn1 [Compound A28] | 100% | 100% | 100% | 90% | 100% | 70% | 100% | 40% | 100% | 
O=S(=O)([O-])CC[n+]1ccc(-c2cccnn2)cn1 [Compound A213, 2-(4-pyridazin-1-ium-3-ylpyridazin-1-ium-1-yl)ethanesulfonate chloride] | 100% | 100% | 80% | 80% | 100% | 90% | 100% | 100% | 100% | 
